In PMC3914206:

Key:
Type in all cases: binding
Design in all cases: KINOMEscan: ABL1(F317L)-phosphorylated / KINOMEscan: ABL1(H396P)-nonphosphorylated / KINOMEscan: ABL1(H396P)-phosphorylated / KINOMEscan: ABL1(M351T)-phosphorylated / KINOMEscan: ABL1(T315I)-phosphorylated / KINOMEscan: ABL1-nonphosphorylated / KINOMEscan: ABL1-phosphorylated / KINOMEscan: ACVR2A / KINOMEscan: ACVR2B / KINOMEscan: ADCK3 / KINOMEscan: ADCK4 / KINOMEscan: AKT1 / KINOMEscan: AKT3 / KINOMEscan: ALK / KINOMEscan: ARK5 / KINOMEscan: AURKA / KINOMEscan: AURKC / KINOMEscan: BIKE / KINOMEscan: BMPR1A / KINOMEscan: BMPR1B / KINOMEscan: BMX / KINOMEscan: BRK / KINOMEscan: BRSK1 / KINOMEscan: BRSK2 / KINOMEscan: CAMK1 / KINOMEscan: CAMK1D / KINOMEscan: CAMK1G / KINOMEscan: CAMK2A / KINOMEscan: CAMK2B / KINOMEscan: AAK1 / KINOMEscan: CAMK2D / KINOMEscan: CAMK2G / KINOMEscan: ABL1(F317I)-nonphosphorylated / KINOMEscan: ABL1(F317I)-phosphorylated / KINOMEscan: ABL1(F317L)-nonphosphorylated: unit: % Ctrl
panel of 442 kinases [1] = target: T1, panel of 442 kinases (Homo sapiens, UniProt P07949, V804L); settings: Compound Concentration 10 µM
T1 construct: purchased KINOMEscan
T1 sequence (P07949 29-1114 V804L): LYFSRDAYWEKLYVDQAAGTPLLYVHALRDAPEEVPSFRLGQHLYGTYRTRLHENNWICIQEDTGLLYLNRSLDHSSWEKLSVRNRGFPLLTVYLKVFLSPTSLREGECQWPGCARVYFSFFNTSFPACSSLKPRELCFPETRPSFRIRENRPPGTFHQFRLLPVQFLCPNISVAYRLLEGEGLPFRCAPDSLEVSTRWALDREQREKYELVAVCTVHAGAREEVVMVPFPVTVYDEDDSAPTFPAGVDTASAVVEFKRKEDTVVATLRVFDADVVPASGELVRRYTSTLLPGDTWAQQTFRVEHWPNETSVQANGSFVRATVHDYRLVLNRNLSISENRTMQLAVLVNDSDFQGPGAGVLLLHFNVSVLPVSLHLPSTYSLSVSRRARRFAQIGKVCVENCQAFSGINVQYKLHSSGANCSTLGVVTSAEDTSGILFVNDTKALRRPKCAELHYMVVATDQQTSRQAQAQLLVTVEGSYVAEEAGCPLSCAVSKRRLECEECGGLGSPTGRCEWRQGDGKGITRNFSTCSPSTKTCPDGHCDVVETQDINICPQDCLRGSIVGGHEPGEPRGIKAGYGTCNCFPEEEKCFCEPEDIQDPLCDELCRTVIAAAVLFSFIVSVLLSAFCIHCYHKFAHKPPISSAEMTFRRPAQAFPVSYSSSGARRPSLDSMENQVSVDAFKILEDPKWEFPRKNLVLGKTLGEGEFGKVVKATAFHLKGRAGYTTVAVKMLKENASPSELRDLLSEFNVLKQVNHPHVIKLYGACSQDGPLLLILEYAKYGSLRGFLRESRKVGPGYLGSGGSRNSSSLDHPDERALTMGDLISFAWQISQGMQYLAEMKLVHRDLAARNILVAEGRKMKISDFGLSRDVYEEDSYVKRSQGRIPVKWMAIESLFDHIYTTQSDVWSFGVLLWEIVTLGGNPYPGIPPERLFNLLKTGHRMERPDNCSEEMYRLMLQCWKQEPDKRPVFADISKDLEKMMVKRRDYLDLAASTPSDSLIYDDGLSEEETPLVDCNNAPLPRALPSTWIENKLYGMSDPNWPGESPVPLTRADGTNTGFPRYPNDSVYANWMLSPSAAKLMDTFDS
From the text: (§1) We assessed the selectivity of members of this scaffold using the KINOMEscan methodology across a near comprehensive panel of 442 kinases [[18,27]].

panel of 442 kinases [2] = target: T2, panel of 442 kinases (Homo sapiens, UniProt P22455); settings: Compound Concentration 10 µM
T2 construct: purchased KINOMEscan
T2 sequence (P22455 22-802): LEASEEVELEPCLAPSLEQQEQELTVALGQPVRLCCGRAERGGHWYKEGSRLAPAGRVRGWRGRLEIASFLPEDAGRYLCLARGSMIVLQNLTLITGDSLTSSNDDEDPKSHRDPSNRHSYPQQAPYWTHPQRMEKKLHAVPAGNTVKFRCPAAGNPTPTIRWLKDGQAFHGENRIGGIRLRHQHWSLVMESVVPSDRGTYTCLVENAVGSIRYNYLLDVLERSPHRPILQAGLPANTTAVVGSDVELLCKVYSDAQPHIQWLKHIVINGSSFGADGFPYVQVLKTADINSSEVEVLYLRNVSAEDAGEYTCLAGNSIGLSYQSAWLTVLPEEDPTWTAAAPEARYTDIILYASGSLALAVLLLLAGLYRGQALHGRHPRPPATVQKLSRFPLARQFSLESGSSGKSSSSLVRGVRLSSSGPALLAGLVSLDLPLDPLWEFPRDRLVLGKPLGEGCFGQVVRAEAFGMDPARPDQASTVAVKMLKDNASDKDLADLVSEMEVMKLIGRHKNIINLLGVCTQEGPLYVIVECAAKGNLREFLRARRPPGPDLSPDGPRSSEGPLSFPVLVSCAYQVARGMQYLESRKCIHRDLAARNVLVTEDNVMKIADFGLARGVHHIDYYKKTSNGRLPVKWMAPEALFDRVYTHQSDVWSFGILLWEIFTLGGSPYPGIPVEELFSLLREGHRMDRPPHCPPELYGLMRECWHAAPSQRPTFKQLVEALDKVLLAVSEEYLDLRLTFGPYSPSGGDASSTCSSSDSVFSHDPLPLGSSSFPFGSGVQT
From the text: as §1

panel of 442 kinases [3] = target: T3, panel of 442 kinases (Homo sapiens, UniProt Q13554); settings: Compound Concentration 10 µM
T3 construct: purchased KINOMEscan
T3 sequence (Q13554 whole entry): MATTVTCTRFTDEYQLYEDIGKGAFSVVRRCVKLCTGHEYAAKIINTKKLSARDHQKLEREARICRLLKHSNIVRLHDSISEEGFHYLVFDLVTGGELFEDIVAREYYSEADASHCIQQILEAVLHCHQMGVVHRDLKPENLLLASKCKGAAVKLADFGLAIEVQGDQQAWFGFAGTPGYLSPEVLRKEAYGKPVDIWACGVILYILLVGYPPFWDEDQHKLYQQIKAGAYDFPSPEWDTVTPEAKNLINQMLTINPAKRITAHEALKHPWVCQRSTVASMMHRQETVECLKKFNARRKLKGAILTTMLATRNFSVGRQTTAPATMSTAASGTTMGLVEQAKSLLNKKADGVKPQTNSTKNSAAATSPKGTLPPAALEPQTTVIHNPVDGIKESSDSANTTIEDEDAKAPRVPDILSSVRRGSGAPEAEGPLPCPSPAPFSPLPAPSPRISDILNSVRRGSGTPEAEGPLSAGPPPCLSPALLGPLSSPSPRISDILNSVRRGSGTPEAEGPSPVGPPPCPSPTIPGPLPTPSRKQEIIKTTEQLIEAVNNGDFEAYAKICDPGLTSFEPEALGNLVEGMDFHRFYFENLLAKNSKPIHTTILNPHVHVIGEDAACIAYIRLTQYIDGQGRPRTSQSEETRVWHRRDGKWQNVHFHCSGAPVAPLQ
From the text: as §1

panel of 442 kinases [4] = target: T4, panel of 442 kinases (Homo sapiens, UniProt Q8TDR2); settings: kinase STK35; compound concentration 10 µM
T4 construct: purchased KINOMEscan
T4 sequence (Q8TDR2 whole entry): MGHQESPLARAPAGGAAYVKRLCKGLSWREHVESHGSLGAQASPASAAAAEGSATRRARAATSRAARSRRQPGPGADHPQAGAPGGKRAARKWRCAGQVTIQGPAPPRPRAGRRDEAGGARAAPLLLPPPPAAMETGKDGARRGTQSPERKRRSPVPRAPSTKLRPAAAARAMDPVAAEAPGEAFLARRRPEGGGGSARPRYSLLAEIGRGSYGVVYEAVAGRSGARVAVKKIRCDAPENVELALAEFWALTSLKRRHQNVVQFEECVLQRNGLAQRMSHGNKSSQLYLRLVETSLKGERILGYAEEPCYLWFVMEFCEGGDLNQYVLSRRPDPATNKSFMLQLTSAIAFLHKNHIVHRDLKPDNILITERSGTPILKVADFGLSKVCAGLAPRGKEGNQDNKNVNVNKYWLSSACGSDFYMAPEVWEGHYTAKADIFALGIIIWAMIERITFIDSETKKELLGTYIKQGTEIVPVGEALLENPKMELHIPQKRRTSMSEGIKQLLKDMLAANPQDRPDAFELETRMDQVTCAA
From the text: as §1

Compound | KINOMEscan: RET(V804L) (panel of 442 kinases [1]) | KINOMEscan: FGFR4 (panel of 442 kinases [2]) | KINOMEscan: CAMK2B (panel of 442 kinases [3]) | % Ctrl, STK35 (panel of 442 kinases [4]) [% Ctrl]
COc1cc(C(=O)N2CCC(N3CCN(C)CC3)CC2)ccc1Nc1ncc2c(n1)N(C1CCCC1)c1ccccc1C(=O)N2C [Compound 25, 11-cyclopentyl-2-((2-methoxy-4-(4-(4-methylpiperazin-1-yl)piperidine-1-carbonyl)phenyl)amino)-5-methyl-5H-benzo[e]pyrimido[5,4-b][1,4]diazepin-6(11H)-one] | 100 | 75 | 80 | 100
COc1cc(C(=O)N2CCC(N3CCN(C)CC3)CC2)ccc1Nc1ncc2c(n1)N1CCc3cccc(c31)C(=O)N2C [Compound 24] | 77 | 23 | 62 | 100
COc1cc(C(=O)N2CCC(N3CCN(C)CC3)CC2)ccc1Nc1ncc2c(n1)N(C)c1ccccc1C(=O)N2C [15 (LRRK2-IN-1)] | 89 | 28 | 62 | 100
CCOc1cc(C(=O)N2CCC(N3CCN(C)CC3)CC2)ccc1Nc1ncc2c(n1)N(C1CCCC1)c1ccccc1C(=O)N2C [Compound 26] | 100 | 100 | 78 | 96
